Data on 2 molecules can be found in patent publication US20220080053A1, “USE OF ANTI-CEACAM5 IMMUNOCONJUGATES FOR TREATING LUNG CANCER” (SANOFI, priority 2019, published 2022).

Test [1] has as its system other CEACAM family members. As to conditions: cited from earlier work.
The test system of test [2] is Macaca fascicularis CEACAM5. As to conditions: cited from earlier work.
The subject of test [3] is Macaca fascicularis CEACAM5. The test is described as follows: Affinity for Macaca fascicularis CEACAM5. It is filed as binding. From the text:
(§1) In an attempt to produce new antibodies against CEACAM5 surface protein with optimal characteristics for therapeutic purposes, mice were immunized with recombinant proteins and with tumour cells. They have screened hundreds of hybridoma using ELISA on several recombinant proteins of the CEACAM family, and flow cytometry with relevant cell lines, in order to select only immunoglobulins (IgGs) with the advantageous profile. Unexpectedly, they were able to select hybridoma clones and produce corresponding mature IgGs that comprise all of the desired features. […] In a cellular context, these antibodies display high affinity for tumor cells (in the nano-molar range). […] It can be experimentally assessed by a variety of known methods, such as measuring association and dissociation rates with surface plasmon resonance or measuring the EC50 (or apparent KD) in an immunochemical assay (ELISA, FACS). In these assays, the EC50 is the concentration of the antibody which induces a response halfway between the baseline and maximum after some specified exposure time on a defined concentration of antigen by ELISA (enzyme-linked immuno-sorbent assay) or cell expressing the antigen by FACS (Fluorescence Activated Cell Sorting). Affinity for human CEACAM5 or for Macaca fascicularis CEACAM5 may be determined as the EC50 value in an ELISA using soluble recombinant CEACAM5 as capture antigen.

The next test deals with T1, human CEACAM5 (Homo sapiens, UniProt P06731).
T1 construct: soluble recombinant CEACAM5 as capture antigen
T1 sequence (P06731 35-685 limits assumed): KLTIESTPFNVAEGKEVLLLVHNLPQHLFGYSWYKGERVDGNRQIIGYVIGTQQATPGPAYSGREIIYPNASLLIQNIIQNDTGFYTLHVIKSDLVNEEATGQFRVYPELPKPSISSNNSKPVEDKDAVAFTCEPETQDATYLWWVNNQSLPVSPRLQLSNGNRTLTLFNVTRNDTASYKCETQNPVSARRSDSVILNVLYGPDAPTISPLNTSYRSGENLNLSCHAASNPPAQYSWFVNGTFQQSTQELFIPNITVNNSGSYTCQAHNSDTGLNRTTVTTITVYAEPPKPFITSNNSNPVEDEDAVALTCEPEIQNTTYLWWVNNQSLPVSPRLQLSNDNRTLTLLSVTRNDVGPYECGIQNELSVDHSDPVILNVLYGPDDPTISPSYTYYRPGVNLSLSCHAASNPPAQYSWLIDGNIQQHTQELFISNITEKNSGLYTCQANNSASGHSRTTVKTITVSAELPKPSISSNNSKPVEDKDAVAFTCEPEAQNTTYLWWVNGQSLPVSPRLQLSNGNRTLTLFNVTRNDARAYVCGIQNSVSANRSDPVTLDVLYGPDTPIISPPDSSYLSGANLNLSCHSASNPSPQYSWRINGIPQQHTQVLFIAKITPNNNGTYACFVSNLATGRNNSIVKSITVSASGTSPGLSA
The test is described as follows: Affinity for human CEACAM5. It is filed as binding.
Source text: as §1

Chain of Macaca fascicularis CEACAM5 (as listed by the source): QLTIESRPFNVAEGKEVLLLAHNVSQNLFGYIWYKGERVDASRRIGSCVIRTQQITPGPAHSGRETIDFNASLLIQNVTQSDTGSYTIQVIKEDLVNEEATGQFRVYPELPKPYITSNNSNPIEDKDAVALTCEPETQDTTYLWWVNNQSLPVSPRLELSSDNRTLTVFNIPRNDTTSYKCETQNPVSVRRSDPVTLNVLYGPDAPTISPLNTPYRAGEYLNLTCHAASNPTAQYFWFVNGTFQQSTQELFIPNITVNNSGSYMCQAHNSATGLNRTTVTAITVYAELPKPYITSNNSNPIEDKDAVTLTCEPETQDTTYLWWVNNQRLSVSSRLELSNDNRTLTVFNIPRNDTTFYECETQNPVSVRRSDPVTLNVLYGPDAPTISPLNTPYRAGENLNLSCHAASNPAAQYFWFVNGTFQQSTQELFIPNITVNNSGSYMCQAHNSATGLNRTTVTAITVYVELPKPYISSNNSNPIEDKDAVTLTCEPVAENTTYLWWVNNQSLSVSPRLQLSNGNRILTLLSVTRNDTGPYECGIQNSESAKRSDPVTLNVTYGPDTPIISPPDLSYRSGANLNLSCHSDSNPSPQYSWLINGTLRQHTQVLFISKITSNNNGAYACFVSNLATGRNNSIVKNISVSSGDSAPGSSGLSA

In the case of “labetuzumab: Immunomedics anti-human CEACAM5 antibody used in clinical trials”, in test [1], the “binding to related antigens / other CEACAM family members” value is listed as “not to bind”. Besides, the “cross-reaction with CEACAM5 from Macaca fascicularis” value in test [2] is reported as “not cross-reacting”.

B1: Mab2K52R: variant of antibody MAb2 generated by introducing a K52R substitution in the CDR2-L (antibody, V domains shown)
VH: EVQLQESGGVLVKPGGSLKLSCAASGFVFSSYDMSWVRQTPEKRLEWVAYISSGGGITYFPDTVQGRFTVSRDNAKNTLYLQMNSLKSEDTAIYYCAAHYFGSSGPFAYWGQGTLVTVSA
VL: DIQMTQSPASLSASVGETVTITCRASENIFSYLAWYQQKQGKSPQLLVYNTRTLAEGVPSRFSGSGSGTQFSLKINSLQPEDFGSYYCQHHYGTPFTFGSGTKLEIK
Regarding B1, the “affinity for Macaca fascicularis CEACAM5 compared with MAb2” value in test [3] is “essentially the same affinity”. In addition, in the test with human CEACAM5, the “affinity for human CEACAM5 compared with MAb2” value is “essentially the same affinity”.
